From patent publication US10016434B2, “Methods for the treatment of HER2 amplified cancer” (Pharmacyclics LLC, priority 2013, dated 2018)
“Also recorded” adds a separate entry of the source. Where two headings read alike, the source gives them in different places. Blank lines part the entries; values can stand above or below the molecule they belong to.

Tests used:
[1] = test system: HER2 and HER4 activation in BT-474 cells; assay: HER2 and HER4 activation assessed by phosphorylation of downstream targets (FIG. 16); format: cell-based; conditions: BT-474, ibrutinib compared to AVL-292
[2] = biological target: T1, BTK (Homo sapiens, UniProt Q06187); assay: Covalent binding to Btk, DoHH2 cells with PCI-33380 (FIG. 24); conditions: inhibitors 1 h, then PCI-33380 2 uM 30 min
T1 construct: endogenous in cells; host or cells: DoHH2

[3] = test system: EGFR, HER2, HER4 and downstream targets (MEK, Akt signaling pathway); assay: Signaling pathway inhibition (FIGS. 19-21); format: cell-based; conditions: for inhibition of MEK and Akt signaling pathway compared with EGFR and HER2 signaling pathway: FIG. 21
[4] = biological target: Erb4 (Homo sapiens, UniProt Q15303); assay: Kinase activity assay (LabChip platform, Nanosyn)
[5] = test system: SK-BR3 cells; assay: Cell cycle analysis; format: cell-based; conditions: SK-BR3, 1 h exposure, measured at 24 h
[6] = test system: aldehyde dehydrogenase (ALDH) in BT-474 cells; assay: Aldefluor assay
[7] = biological target: ErbB kinases; assay: Separate dialysis experiment on kinase inhibition (data not shown); format: biochemical
[8] = biological target: HER4 (Homo sapiens, UniProt Q15303); assay: HER4 dialysis assay; format: biochemical; conditions: 10 nM or 100 nM, 1 h pre-incubation, 24 h dialysis
[9] = test system: SK-BR3 cells; assay: Cell growth inhibition wash out assay; format: cell-based; conditions: SK-BR3, 1 hour exposure (0.1, 0.25, 0.5 μM), 6 days culture
[10] = test system: UACC-893 cells; assay: Cell proliferation assay with alamar blue; format: cell-based; conditions: UACC-893, 3 days continuous exposure
[11] = biological target: JAK3 (Homo sapiens, UniProt P52333); assay: Kinase activity assay (LabChip platform, Nanosyn); format: biochemical; conditions: recombinant enzyme 5 nM, substrate 1 μM
[12] = test system: BT-474 cells; assay: Cell growth inhibition wash out assay; format: cell-based; conditions: BT-474, 1 hour exposure (0.1, 0.25, 0.5 μM), 6 days culture
[13] = biological target: TXK (Homo sapiens, UniProt P42681); assay: Kinase activity assay (LabChip platform, Nanosyn); format: biochemical; conditions: recombinant enzyme 5 nM, substrate 1 μM
[14] = biological target: ErB2 (Homo sapiens, UniProt P04626); assay: Kinase activity assay (LabChip platform, Nanosyn); conditions: recombinant enzyme 5 nM, substrate 1 μM
[15] = biological target: ITK (Homo sapiens, UniProt Q08881); assay: Kinase activity assay (LabChip platform, Nanosyn); format: biochemical; conditions: recombinant enzyme 5 nM, substrate 1 μM
[16] = biological target: TEC (Homo sapiens, UniProt P42680); assay: Kinase activity assay (LabChip platform, Nanosyn); format: biochemical; conditions: recombinant enzyme 5 nM, substrate 1 μM
[17] = biological target: BLK (Homo sapiens, UniProt P51451); assay: Kinase activity assay (LabChip platform, Nanosyn); format: biochemical; conditions: recombinant enzyme 5 nM, substrate 1 μM
[18] = test system: MDA-MB-453 cells; assay: Resistance induced by heregulin; format: cell-based; conditions: MDA-MB-453, higher concentration of ibrutinib
[19] = test system: BT-474 cells; assay: Cell cycle analysis; format: cell-based; conditions: BT-474, 1 h exposure, measured at 24 h
[20] = test system: BT-474 cells; assay: Resistance induced by heregulin; format: cell-based; conditions: BT-474, higher concentration of ibrutinib
[21] = biological target: LCK (Homo sapiens, UniProt P06239); assay: LCK dialysis assay; format: biochemical; conditions: 10 nM or 100 nM, 1 h pre-incubation, 24 h dialysis
Protocol: Control samples included: DMSO+5 nM LCK dialyzed in the identical manner. […] Initial velocity was determined in the samples.

[22] = biological target: EGFR (Homo sapiens, UniProt P00533); assay: EGFR dialysis assay; format: biochemical; conditions: 10 nM or 100 nM, 1 h pre-incubation, 24 h dialysis
Protocol: Control samples included: DMSO+5 nM EGFR dialyzed in the identical manner. […] Initial velocity was determined in the samples.

[23] = test system: Btk signaling pathways in Mino cells; assay: Signaling pathways in B cells (FIG. 23); format: cell-based
[24] = test system: BT-474 cells; assay: Cell proliferation assay with alamar blue; conditions: BT-474, 3 days continuous exposure
[25] = test system: HER signaling pathway; assay: One hour treatment followed by washout, signaling pathways (FIG. 33); format: cell-based
[26] = test system: BT-474 cells; assay: Apoptosis assay (annexin-V / sub G0); format: cell-based
[27] = test system: ErbB kinases and down-stream signaling pathways; assay: Washout experiment, immunoblotting of total and phosphorylated proteins (FIG. 10); format: cell-based; conditions: BT474 and SKBR-3, 0.1 or 0.5 μM, various times, then cultured additional 2 hours
Protocol: Cells were washed once with cold PBS and lysed in 1× sample buffer (Invitrogen). The whole cell lysate was boiled, sonicated, and then loaded onto a 4-15% gradient SDS-PAGE gel. The proteins were transferred to PVDF membrane. After probing with antibodies, the detection was conducted using an Odyssey […] (Li-Cor). Paired mouse and rabbit antibodies were used to probe the total and corresponding phosphorylated proteins.

[28] = test system: MDA-MB-453 xenograft; assay: Mouse MDA-MB-453 xenograft; format: in vivo
[29] = biological target: EGFR (ErbB1) (Homo sapiens, UniProt P00533); assay: Kinase activity assay (LabChip platform, Nanosyn); conditions: recombinant enzyme 5 nM, substrate 1 μM
[30] = test system: SK-BR3 cells; assay: Cell proliferation assay with alamar blue; conditions: SK-BR3, 3 days continuous exposure
[31] = test system: MDA-MB-453 cells; assay: Cell proliferation assay with alamar blue
[32] = test system: BT-474 cells; assay: Tumorsphere culture; format: cell-based; conditions: BT-474, 1 hour treatment, wash out, seven days culture

T1 sequence (Q06187 whole entry): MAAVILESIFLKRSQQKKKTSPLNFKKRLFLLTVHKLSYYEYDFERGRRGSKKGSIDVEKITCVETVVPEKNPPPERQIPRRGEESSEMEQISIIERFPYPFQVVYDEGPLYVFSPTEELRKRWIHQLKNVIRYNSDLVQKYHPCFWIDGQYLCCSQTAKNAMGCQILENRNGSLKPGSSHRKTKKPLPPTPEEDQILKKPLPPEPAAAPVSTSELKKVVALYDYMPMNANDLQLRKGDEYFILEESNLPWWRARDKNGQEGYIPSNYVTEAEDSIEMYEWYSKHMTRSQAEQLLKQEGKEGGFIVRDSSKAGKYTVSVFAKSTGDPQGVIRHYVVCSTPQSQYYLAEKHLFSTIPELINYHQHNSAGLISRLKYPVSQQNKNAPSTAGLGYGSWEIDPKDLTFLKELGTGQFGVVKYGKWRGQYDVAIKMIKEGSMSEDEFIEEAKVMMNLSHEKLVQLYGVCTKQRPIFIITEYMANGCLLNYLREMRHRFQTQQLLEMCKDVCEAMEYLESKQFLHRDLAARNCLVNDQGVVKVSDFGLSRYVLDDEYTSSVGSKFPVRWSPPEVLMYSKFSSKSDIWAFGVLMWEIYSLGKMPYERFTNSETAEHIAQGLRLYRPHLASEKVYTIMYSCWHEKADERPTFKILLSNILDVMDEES
Chain of Erb4 (Q15303 26-1292 isoform Q15303-3 limits assumed): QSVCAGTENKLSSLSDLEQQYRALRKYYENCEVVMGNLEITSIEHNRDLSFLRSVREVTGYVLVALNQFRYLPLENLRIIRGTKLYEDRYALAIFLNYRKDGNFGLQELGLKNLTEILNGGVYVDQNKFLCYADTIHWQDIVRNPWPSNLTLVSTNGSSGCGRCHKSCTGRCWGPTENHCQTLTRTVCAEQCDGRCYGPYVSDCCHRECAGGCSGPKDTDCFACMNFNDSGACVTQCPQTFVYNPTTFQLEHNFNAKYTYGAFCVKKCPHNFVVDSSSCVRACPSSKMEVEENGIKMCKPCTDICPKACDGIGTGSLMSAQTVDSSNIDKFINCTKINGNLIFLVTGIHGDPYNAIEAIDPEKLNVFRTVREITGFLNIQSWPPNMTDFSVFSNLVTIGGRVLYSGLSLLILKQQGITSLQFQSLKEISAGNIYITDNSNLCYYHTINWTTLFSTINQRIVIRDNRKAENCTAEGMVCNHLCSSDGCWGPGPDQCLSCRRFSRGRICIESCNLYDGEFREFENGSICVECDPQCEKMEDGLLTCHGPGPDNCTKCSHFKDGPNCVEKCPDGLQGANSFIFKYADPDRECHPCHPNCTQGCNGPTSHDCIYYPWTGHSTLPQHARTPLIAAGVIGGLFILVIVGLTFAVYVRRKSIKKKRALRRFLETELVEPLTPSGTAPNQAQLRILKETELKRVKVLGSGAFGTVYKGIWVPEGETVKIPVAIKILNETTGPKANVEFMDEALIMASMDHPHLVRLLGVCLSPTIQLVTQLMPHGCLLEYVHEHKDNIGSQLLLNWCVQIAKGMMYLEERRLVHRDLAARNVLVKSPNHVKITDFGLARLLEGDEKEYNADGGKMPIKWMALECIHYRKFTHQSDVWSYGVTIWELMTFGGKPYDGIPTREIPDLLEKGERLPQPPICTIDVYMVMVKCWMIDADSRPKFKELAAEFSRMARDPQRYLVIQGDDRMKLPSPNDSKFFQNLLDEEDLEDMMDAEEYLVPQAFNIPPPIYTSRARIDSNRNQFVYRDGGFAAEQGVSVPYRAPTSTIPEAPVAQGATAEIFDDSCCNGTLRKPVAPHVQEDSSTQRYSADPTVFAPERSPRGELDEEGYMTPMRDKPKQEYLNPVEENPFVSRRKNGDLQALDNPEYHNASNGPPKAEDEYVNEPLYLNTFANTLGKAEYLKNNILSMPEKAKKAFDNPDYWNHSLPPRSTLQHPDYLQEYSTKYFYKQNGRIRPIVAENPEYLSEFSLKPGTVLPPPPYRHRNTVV
Chain of LCK (P06239 whole entry, species assumed): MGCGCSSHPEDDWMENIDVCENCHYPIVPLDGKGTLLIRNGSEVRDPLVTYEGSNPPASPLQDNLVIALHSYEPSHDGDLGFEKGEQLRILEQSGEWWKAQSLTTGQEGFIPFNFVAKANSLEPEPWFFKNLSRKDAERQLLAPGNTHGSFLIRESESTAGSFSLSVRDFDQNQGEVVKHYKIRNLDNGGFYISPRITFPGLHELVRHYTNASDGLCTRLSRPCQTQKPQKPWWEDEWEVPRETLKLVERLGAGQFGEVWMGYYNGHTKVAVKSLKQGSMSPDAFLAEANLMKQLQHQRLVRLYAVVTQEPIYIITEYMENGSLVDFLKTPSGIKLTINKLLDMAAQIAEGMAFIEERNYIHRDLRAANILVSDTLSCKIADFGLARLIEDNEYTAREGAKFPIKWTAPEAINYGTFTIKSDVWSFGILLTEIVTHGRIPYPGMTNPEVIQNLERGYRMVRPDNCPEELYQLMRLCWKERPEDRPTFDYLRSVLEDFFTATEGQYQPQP
Chain of HER4 (Q15303 26-1292 isoform Q15303-3 limits assumed): as the sequence (Q15303 26-1292 isoform Q15303-3 limits assumed) above
Chain of EGFR (P00533 25-1210): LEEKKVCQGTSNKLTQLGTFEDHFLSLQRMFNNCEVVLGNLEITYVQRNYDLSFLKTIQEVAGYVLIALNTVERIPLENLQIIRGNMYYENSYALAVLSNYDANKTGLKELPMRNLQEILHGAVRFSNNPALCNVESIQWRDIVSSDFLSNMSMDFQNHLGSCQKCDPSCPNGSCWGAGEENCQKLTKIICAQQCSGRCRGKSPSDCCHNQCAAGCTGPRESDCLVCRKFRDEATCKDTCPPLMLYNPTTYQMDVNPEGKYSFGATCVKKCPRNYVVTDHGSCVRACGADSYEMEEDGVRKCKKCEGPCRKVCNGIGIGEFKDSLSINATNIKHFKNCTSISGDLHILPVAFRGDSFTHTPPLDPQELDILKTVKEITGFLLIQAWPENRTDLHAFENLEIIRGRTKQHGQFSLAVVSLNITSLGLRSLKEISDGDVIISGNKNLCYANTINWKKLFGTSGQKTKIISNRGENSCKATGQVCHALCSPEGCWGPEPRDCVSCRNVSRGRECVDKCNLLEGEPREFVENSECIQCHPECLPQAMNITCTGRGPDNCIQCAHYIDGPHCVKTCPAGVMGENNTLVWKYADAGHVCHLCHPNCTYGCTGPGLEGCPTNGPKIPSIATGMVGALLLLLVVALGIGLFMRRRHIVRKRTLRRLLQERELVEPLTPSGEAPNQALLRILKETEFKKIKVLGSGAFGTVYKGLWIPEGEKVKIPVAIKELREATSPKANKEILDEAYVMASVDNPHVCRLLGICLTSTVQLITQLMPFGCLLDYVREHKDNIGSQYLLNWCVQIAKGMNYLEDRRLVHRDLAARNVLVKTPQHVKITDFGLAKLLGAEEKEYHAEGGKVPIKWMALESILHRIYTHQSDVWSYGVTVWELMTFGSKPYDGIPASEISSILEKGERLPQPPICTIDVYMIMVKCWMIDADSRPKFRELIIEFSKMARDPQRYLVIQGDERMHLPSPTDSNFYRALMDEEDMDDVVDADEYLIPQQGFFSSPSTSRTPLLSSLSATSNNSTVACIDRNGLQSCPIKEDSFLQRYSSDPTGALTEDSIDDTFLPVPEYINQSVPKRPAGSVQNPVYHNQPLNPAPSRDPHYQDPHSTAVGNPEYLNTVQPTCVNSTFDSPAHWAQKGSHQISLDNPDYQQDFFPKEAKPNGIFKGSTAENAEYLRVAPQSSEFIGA
Chain of EGFR (ErbB1) (P00533 25-1210): as above

Structure (SMILES): C=CC(=O)Nc1cccc(Nc2nc(Nc3ccc(OCCOC)cc3)ncc2F)c1 [AVL-292, reference compound]
- inhibition of HER2 and HER4 activation (phosphorylation of downstream targets, such as AKT) [1]: only ibrutinib inhibited

Structure (SMILES): C=CC(=O)N1CCC[C@@H](n2nc(-c3ccc(Oc4ccccc4)cc3)c3c(N)ncnc32)C1 [ibrutinib, (R)-1-(3-(4-amino-3-(4-phenoxyphenyl)-1H-pyrazolo[3,4-d]pyrimidin-1-yl)piperidin-1-yl)prop-2-en-1-one]
- cell cycle effect [5]: G1 arrest
- putative stem-like subpopulation of breast cancer cells ([6]; BT-474, one hour or continuous treatment): decreased
- aldehyde dehydrogenase activity ([6]; BT-474, short exposures to high concentrations or continuous exposure to low concentration): decreased aldehyde dehydrogenase activity
- kinase inhibition after dialysis [7]: dialysis resistant
- reversibility of HER4 inhibition after dialysis [8]: irreversible inhibition
- reversibility of HER4 inhibition after dialysis ([8]; listed as Ibrutinib): irreversibly inhibits
- growth inhibitory effect after wash out [9]: sustained and was dose dependent
- growth inhibitory effect [10]: sensitive to the growth inhibitory effect
- inhibition of JAK3 [11]: able to inhibit
- growth inhibitory effect after wash out [12]: sustained and was dose dependent
- inhibition of TXK [13]: able to inhibit
- inhibition of ErB2 [14]: able to inhibit; also recorded: effective in inhibiting
- inhibition of ITK [15]: able to inhibit
- inhibition of TEC [16]: able to inhibit
- inhibition of BLK [17]: able to inhibit
- overcoming resistance induced by heregulin [18]: able to overcome resistance induced by heregulin
- cell cycle effect [19]: G1 arrest
- overcoming resistance induced by heregulin [20]: able to overcome resistance induced by heregulin
- reversibility of LCK inhibition after dialysis [21]: reversible inhibition
- reversibility of LCK inhibition after dialysis ([21]; listed as Ibrutinib): reversibly inhibits
- reversibility of EGFR inhibition after dialysis [22]: irreversible inhibition
- reversibility of EGFR inhibition after dialysis ([22]; listed as Ibrutinib): irreversibly inhibits
- inhibitory effect on Btk signaling pathways in B cells [23]: selective inhibitory effect
- inhibitory effect on Btk signaling pathways in B cells ([23]; listed as Ibrutinib): selectively inhibits
- growth inhibitory effect [24]: sensitive to the growth inhibitory effect; also recorded: confirmed ibrutinib inhibitory activity
- inhibitory effect on HER signaling pathway after washout ([25]; day 6): lasting inhibitory effect even after day 6
- inhibitory effect on HER signaling pathway after washout ([25]; day 6, listed as Ibrutinib): long-lasting inhibitory effect even after day 6
- apoptosis (annexin-V positivity or sub G0) ([26]; BT-474, continuous treatment 3-day, with or without caspase inhibitor Q-VD-OPH): dramatic apoptosis which was caspase-dependent
- apoptosis (cells in sub G0) ([26]; BT-474, one hour treatment, 6 days after the exposure): low level of apoptosis
- inhibition of ErbB kinases and down-stream signaling pathways after washout [27]: persisted after ibrutinib washout, and was time and concentration dependent
- solid tumor growth (tumor volume) [28]: inhibited solid tumor growth
- inhibition of EGFR (ErbB1) [29]: able to inhibit; also recorded: effective in inhibiting
- growth inhibitory effect [30]: sensitive to the growth inhibitory effect; also recorded: confirmed ibrutinib inhibitory activity
- growth inhibitory effect ([31]; MDA-MB-453, 3 days continuous exposure): sensitive to the growth inhibitory effect; also recorded: confirmed ibrutinib inhibitory activity
- inhibition of cell growth compared to gefitinib ([31]; MDA-MB-453, fluorescence-based assay): more potent than gefitinib
- tumorsphere growth (size) [32]: inhibited tumorsphere growth
- tumorsphere number [32]: without affecting tumorsphere number
- IC50 toward EGFR compared with HER2 and HER4 ([3]; FIG. 19B): higher IC50
- inhibition of MEK and Akt signaling pathway compared with EGFR and HER2 signaling pathway [3]: more potent inhibitor of MEK and Akt pathways than the EGFR and HER2 pathways
- inhibition of MEK and Akt signaling pathway compared with EGFR and HER2 signaling pathway ([3]; listed as Ibrutinib): potent inhibitor of the MEK and Akt signaling pathway than of the EGFR and HER2 signaling pathway
- inhibition of HER2 and HER4 activation (phosphorylation of downstream targets, such as AKT) [1]: only ibrutinib inhibited HER2 and HER4 activation
- inhibition of Erb4 ([4]; recombinant enzyme 5 nM, substrate 1 μM): able to inhibit; also recorded: effective in inhibiting

Structure (SMILES): CS(=O)(=O)CCNCc1ccc(-c2ccc3ncnc(Nc4ccc(OCc5cccc(F)c5)c(Cl)c4)c3c2)o1 [lapatinib]
- covalent binding to Btk [2]: did not

Structure (SMILES): CCOc1cc2ncc(C#N)c(Nc3ccc(OCc4ccccn4)c(Cl)c3)c2cc1NC(=O)/C=C/CN(C)C [neratinib]
- covalent binding to Btk [2]: did not

Continued, in another order:

- covalent binding to Btk [2]: did not
Structure (SMILES): COc1cc2ncnc(Nc3ccc(F)c(Cl)c3)c2cc1NC(=O)/C=C/CN1CCCCC1 [dacomitinib, reference compound]
- inhibition of EGFR and downstream targets ([3]; FIG. 20): less effective

- HER4 inhibitory activity compared to ibrutinib ([4]; stated without source): lower HER2/4 inhibitory activity
Structure (SMILES): COc1cc2ncnc(Nc3ccc(F)c(Cl)c3)c2cc1OCCCN1CCOCC1 [gefitinib, reference compound]
